Measured values from ChEMBL document CHEMBL5154935, “Design, Synthesis, and Biological Evaluation of Novel Evodiamine Derivatives as Potential Antihepatocellular Carcinoma Agents” (J Med Chem, 2022).
Active and inactive are the calls of the source. No cut-off for these calls is given here.

What was measured:
[1] = tested on: HepG2; assay: Antiproliferative activity against human HepG2 cells treated for 72 hrs by MTT assay; assay type: functional, cell-based; conditions: HepG2, 72 h
[2] = tested on: Huh-7; assay: Induction of cell cycle arrest in human Huh-7 cells assessed as accumulation at G2 phase at 80 nM treated for 24 hrs by PI staining based flow cytometry (reference value: 15.90 %); assay type: functional
[3] = tested on: SK-HEP1; assay: Induction of cell cycle arrest in human SK-Hep1 cells assessed as accumulation at G1 phase at 40 nM treated for 24 hrs by PI staining based flow cytometry (reference value: 58.47 %); assay type: functional
[4] = tested on: Huh-7; assay: Induction of cell cycle arrest in human Huh-7 cells assessed as accumulation at S phase at 10 nM treated for 24 hrs by PI staining based flow cytometry (reference value: 23.33 %); assay type: functional
[5] = tested on: SK-HEP1; assay: Induction of apoptosis in human SK-Hep1 cells assessed as cytoskeleton disintegration incubated for 24 hrs by Giemsa staining based microscopy; assay type: functional, cell-based; conditions: dose 12-60 nM, DDE = dose-dependent effect
[6] = Induction of apoptosis in rat HSC-T6 cells assessed as late apoptotic cells at 80 nM pretreated with TGFbeta-1 for 1 day followed by compound addition and measured after 24 hrs by flow cytometry (reference value: 1.76 %); assay type: functional
[7] = tested on: Huh-7; assay: Induction of cell cycle arrest in human Huh-7 cells assessed as accumulation at G1 phase at 40 nM treated for 24 hrs by PI staining based flow cytometry (reference value: 60.77 %); assay type: functional
[8] = tested on: Huh-7; assay: Induction of cell cycle arrest in human Huh-7 cells assessed as accumulation at S phase at 40 nM treated for 24 hrs by PI staining based flow cytometry (reference value: 23.33 %); assay type: functional
[9] = tested on: SK-HEP1; assay: Induction of apoptosis in human SK-Hep1 cells assessed as late apoptotic cells at 40 nM incubated for 24 hrs by annexin V-FITC/PI staining flow cytometry (reference value: 1.13 %); assay type: functional
[10] = tested on: SK-HEP1; assay: Antiproliferative activity against human SK-HEP1 cells treated for 72 hrs by MTT assay; assay type: functional, cell-based; conditions: SK-HEP1, 72 h
[11] = tested on: SK-HEP1; assay: Induction of cell cycle arrest in human SK-Hep1 cells assessed as accumulation at G1 phase at 10 nM treated for 24 hrs by PI staining based flow cytometry (reference value: 58.47 %); assay type: functional
[12] = tested on: SK-HEP1; assay: Induction of cell cycle arrest in human SK-Hep1 cells assessed as accumulation at G2 phase at 10 nM treated for 24 hrs by PI staining based flow cytometry (reference value: 16.55 %); assay type: functional
[13] = tested on: Huh-7; assay: Induction of apoptosis in human Huh-7 cells assessed as cell shrinkage incubated for 24 hrs by Giemsa staining based microscopy; assay type: functional; conditions: dose 12-60 nM, DDE = dose-dependent effect
[14] = Antiproliferative activity against human L02 cells treated for 72 hrs by MTT assay; assay type: toxicity, cell-based
[15] = tested on: Huh-7; assay: Induction of cell cycle arrest in human Huh-7 cells assessed as accumulation at S phase at 80 nM treated for 24 hrs by PI staining based flow cytometry (reference value: 23.33 %); assay type: functional
[16] = tested on: HCC; assay: Inhibition of clonogenicity in human HCC cells assessed as decrease in number of colonies at 3 to 18 nM incubated for 1 to 2 weeks by optical microscopy analysis; assay type: functional, cell-based; conditions: dose 3-18 nM, time 1-2 weeks
[17] = tested on: Huh-7; assay: Induction of apoptosis in human Huh-7 cells assessed as viable cells at 80 nM incubated for 24 hrs by annexin V-FITC/PI staining flow cytometry (reference value: 97.3 %); assay type: functional; conditions: read-out: Activity
[18] = tested on: SK-HEP1; assay: Induction of apoptosis in human SK-Hep1 cells assessed as viable cells at 40 nM incubated for 24 hrs by annexin V-FITC/PI staining flow cytometry (reference value: 97.8 %); assay type: functional; conditions: read-out: Activity
[19] = tested on: SK-HEP1; assay: Inhibition of cell migration in human SK-HEP1 cells at 3 to 18 nM incubated for 24 hrs by crystal violet staining based transwell assay; assay type: functional; conditions: dose 3-18 nM
[20] = Induction of apoptosis in rat HSC-T6 cells assessed as early apoptotic cells at 40 nM pretreated with TGFbeta-1 for 1 day followed by compound addition and measured after 24 hrs by flow cytometry (reference value: 0.17 %); assay type: functional
[21] = molecular target: T1, DNA topoisomerase 1 (Homo sapiens) (UniProt P11387); assay: Inhibition of Top1 (unknown origin) assessed as inhibition of relaxation of supercoiled pBR322 plasmid DNA at 12.5 uM incubated for 25 mins by ethidium bromide staining based agarose gel electrophoresis analysis relative to control
T1 sequence (whole entry): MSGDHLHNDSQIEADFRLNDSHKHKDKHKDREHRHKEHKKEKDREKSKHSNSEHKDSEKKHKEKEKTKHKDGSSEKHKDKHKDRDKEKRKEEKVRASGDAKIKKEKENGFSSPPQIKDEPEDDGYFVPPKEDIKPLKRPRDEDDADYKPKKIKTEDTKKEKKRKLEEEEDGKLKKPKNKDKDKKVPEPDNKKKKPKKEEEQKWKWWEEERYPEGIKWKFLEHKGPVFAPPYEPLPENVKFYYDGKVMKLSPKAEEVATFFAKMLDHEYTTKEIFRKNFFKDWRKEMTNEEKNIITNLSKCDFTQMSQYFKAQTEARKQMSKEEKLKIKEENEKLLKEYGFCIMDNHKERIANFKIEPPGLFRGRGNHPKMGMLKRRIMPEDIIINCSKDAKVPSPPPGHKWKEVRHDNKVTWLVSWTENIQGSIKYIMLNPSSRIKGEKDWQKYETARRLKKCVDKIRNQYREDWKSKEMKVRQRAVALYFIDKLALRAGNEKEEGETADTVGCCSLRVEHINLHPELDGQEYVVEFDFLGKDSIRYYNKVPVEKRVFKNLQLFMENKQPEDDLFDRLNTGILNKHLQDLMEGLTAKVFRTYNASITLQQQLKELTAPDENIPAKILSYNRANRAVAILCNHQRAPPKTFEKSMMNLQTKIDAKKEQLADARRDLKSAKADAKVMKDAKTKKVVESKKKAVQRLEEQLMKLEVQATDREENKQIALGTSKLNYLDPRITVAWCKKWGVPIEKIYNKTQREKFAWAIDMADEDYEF

[22] = tested on: HCCLM9; assay: Antiproliferative activity against human HCCLM9 cells treated for 72 hrs by MTT assay; assay type: functional, cell-based; conditions: HCCLM9, 72 h
[23] = tested on: Huh-7; assay: Induction of apoptosis in human Huh-7 cells assessed as viable cells at 40 nM incubated for 24 hrs by annexin V-FITC/PI staining flow cytometry (reference value: 97.3 %); assay type: functional; conditions: read-out: Activity
[24] = tested on: SK-HEP1; assay: Induction of apoptosis in human SK-Hep1 cells assessed as late apoptotic cells at 10 nM incubated for 24 hrs by annexin V-FITC/PI staining flow cytometry (reference value: 1.13 %); assay type: functional
[25] = tested on: SK-HEP1; assay: Induction of cell cycle arrest in human SK-Hep1 cells assessed as accumulation at G1 phase at 80 nM treated for 24 hrs by PI staining based flow cytometry (reference value: 58.47 %); assay type: functional
[26] = tested on: SK-HEP1; assay: Induction of mitochondrial membrane potential changes in human SK-Hep1 cells assessed as decrease in TMRE positive cells incubated for 24 hrs by TMRE staining based flow cytometry; assay type: functional, cell-based; conditions: dose 10-80 nM, DDE = dose-dependent effect
[27] = tested on: Huh-7; assay: Induction of cell cycle arrest in human Huh-7 cells assessed as accumulation at G2 phase at 10 nM treated for 24 hrs by PI staining based flow cytometry (reference value: 15.90 %); assay type: functional

SMILES: CC(=O)Oc1ccc2[nH]c3c(c2c1)CCN1C(=O)c2cc(F)cc(F)c2N(c2cccc(F)c2)C31 (centres undefined)
- IC50 [1]: 0.18 µM
- Activity [2]: 74.38%
- Activity [3]: 25.35%
- Activity [4]: 34.56%
- Activity [5]: Dde
- Activity [6]: 53%
- Activity [7]: 28.25%
- Activity [8]: 21.48%
- Activity [9]: 13.4%
- IC50 [10]: 0.06 µM
- Activity [11]: 62.52%
- Activity [12]: 18.08%
- Activity [13]: Dde
- IC50 at 72 h [14]: 0.95 µM
- Activity [15]: 8.43%
- inhibition [16]: Active
- viability at 0.08 µM [17]: 59.7%
- viability at 0.04 µM [18]: 75.9%
- inhibition [19]: Active
- Activity [20]: 0.32%
- inhibition [21]: 56.1%
- IC50 [22]: 0.1 µM
- viability at 0.04 µM [23]: 62.9%
- Activity [24]: 7.45%
- Activity [25]: 19.76%
- Activity [26]: Dde
- Activity [27]: 13.54%

SMILES: O=C1c2cc(F)cc(F)c2N(c2cccc(F)c2)C2c3[nH]c4ccc(O)cc4c3CCN12 (centres undefined)
- IC50 [1]: 0.09 µM
- Activity [2]: 78.5%
- Activity [3]: 21.83%
- Activity [4]: 26.7%
- Activity [5]: Dde
- Activity [6]: 41.8%
- Activity [7]: 15.01%
- Activity [8]: 21.24%
- Activity [9]: 13.6%
- IC50 [10]: 0.07 µM
- Activity [11]: 54.93%
- Activity [12]: 26.65%
- Activity [13]: Dde
- IC50 at 72 h [14]: 0.78 µM
- Activity [15]: 10.85%
- inhibition [16]: Active
- viability at 0.08 µM [17]: 58.4%
- viability at 0.04 µM [18]: 74.7%
- inhibition [19]: Active
- Activity [20]: 0.14%
- inhibition [21]: 43.9%
- IC50 [22]: 0.11 µM
- viability at 0.04 µM [23]: 79.5%
- Activity [24]: 3.83%
- Activity [25]: 11.58%
- Activity [26]: Dde
- Activity [27]: 26.52%
